Reference: PMC6131691 (Chirality, 2012)
Where two headings read alike, the source gives them in different places. Marks after values point to notes of the source that are not given here.

Tests used:
[1] = test system: human intestinal S9 fractions (mixture of SULT enzymes); conditions: pH 7.4
[2] = test system: human intestinal S9 fractions (mixture of SULT enzymes); conditions: for Reduction of (R,R)-MF conjugation at equimolar concentrations: equimolar with 50 µM [3H]-(R,R)-MF
[3] = test system: SULT1E1
[4] = test system: SULT isoforms; test: cDNA-expressed SULT isoform screen, comparison of stereoisomers across isoforms; type: in vitro ADME, human; conditions: in each of the SULT isoforms
[5] = test system: human-derived 1321N1 astrocytoma cells; conditions: read-out: IC50, inhibition of mitogenesis; cited from earlier work
[6] = test system: 1321N1 tumors; conditions: tumors implanted in the flank of SKID mice; cited from earlier work
[7] = test system: SULT1A3; test: cDNA-expressed SULT isoform screen, SULT1A3; conditions: relative to SULT1A1*1, SULT1A1*2, SULT1E1
[8] = test system: human intestinal S9 fractions (mixture of SULT enzymes); test: Kinetics of sulfation of MF stereoisomers by human intestinal S9 fractions; conditions: read-out: Km (Michaelis constant) of sulfation; human intestinal S9 1 mg/ml, 200 µM PAPS, pH 7.4, 60 min; mean ± SE
[9] = test system: SULT1A3
[10] = test system: β2-AR; conditions: relative to (R,R)-MF; ref unpublished data; cited from earlier work
[11] = test system: SULT1A1*1
[12] = test system: SULT1A1*2
[13] = humans; cited from earlier work

**Q.** Which Km [1] does the source give for `COc1ccc(CC(C)NCC(O)c2cc(O)cc(O)c2)cc1` [(S,S)-MF, 4-methoxyfenoterol] here?
**A.** Its Km is 89 µM.

**Q.** What about the “Km (Michaelis constant) of sulfation” value [1] of the same molecule?
**A.** The value was 89.21 ^a ± 2.59 µM.

**Q.** What about the IC50 [2] of the same molecule?
**A.** Its IC50 is > 200 µM.

**Q.** What about the “Reduction of (R,R)-MF conjugation at equimolar concentrations” value (“Reduction of (R,R)-MF conjugation” below) ([2]; human intestinal S9) of the same molecule?
**A.** Its value is “little effect”.

**Q.** What about the “Activity of SULT1E1, lower than SULT1A1*1, SULT1A1*2 and SULT1A3” value [3] of the same molecule?
**A.** The value was 1.3 fold.

**Q.** What does the source list for `COc1ccc(C[C@@H](C)NC[C@H](O)c2cc(O)cc(O)c2)cc1` [(R,R)-MF, (R,R)-4-methoxyfenoterol]?
**A.** Sulfation rate compared with (S,S)-MF, (R,S)-MF and (S,R)-MF [4]: significantly (P < 0.0001) lower; IC50 [5]: 0.00017 µM; Growth of 1321N1 tumors [6]: retards the growth; SULT1A3-mediated conjugation, greater than the sulfation by the other isoforms [7]: 1.5- to 2 fold; Km [8]: 62 ± 1.27 µM

**Q.** For `COc1ccc(CC(C)NCC(O)c2cc(O)cc(O)c2)cc1` [(S,R)-MF, 4-methoxyfenoterol], which Km [1] is on record?
**A.** The Km was 52 µM.

**Q.** And the “Reduction in the production of (R,R)-MF sulfate” value ([2]; 2:1 ratio of (S,R)-MF/(R,R)-MF, human intestinal S9)?
**A.** Its value is 61%.

**Q.** And the “Reduction of (R,R)-MF conjugation” value ([2]; human intestinal S9)?
**A.** Its value is ~ 40%.

**Q.** What about the “SULT1A3-mediated conjugation, greater than the sulfation by the other isoforms” value [9] of the same molecule?
**A.** Its value is 1.5- to 2 fold.

**Q.** What about the “β2-AR agonist activity as share of that of (R,R)-MF” value [10] of the same molecule?
**A.** Its value is “less than 5%”.

**Q.** Which Km [1] does the source give for `COc1ccc(CC(C)NCC(O)c2cc(O)cc(O)c2)cc1` [(R,S)-MF, 4-methoxyfenoterol] here?
**A.** The Km was 68.5 ± 3.2 µM.

**Q.** What about the IC50 [2] of the same molecule?
**A.** Its IC50 is > 400 µM.

**Q.** What about the “Reduction of (R,R)-MF conjugation” value ([2]; human intestinal S9) of the same molecule?
**A.** The value was “little effect”.

**Q.** And the “SULT1A1*1-catalyzed sulfation, greater than SULT1A3 and SULT1E1” value [11]?
**A.** Its value is 1.5 fold.

**Q.** And the “SULT1A1*2-catalyzed sulfation, greater than SULT1A3 and SULT1E1” value [12]?
**A.** The value was 1.5 fold.

**Q.** Which Oral bioavailability [13] does the source give for `CC(Cc1ccc(O)cc1)NCC(O)c1cc(O)cc(O)c1` [(R,R;S,S)-Fen, fenoterol] here?
**A.** Its Oral bioavailability is ~ 2%.
